Reference: the supplement of paper PMC10307832

Legend:
Assay in all cases: relative viability (nuclei count vs DMSO), 5 days (fraction); higher = more cells survive
Selisistat + Lapatinib = compound: C1CC(C2=C(C1)C3=C(N2)C=CC(=C3)Cl)C(=O)N [Selisistat] + CS(=O)(=O)CCNCc1ccc(-c2ccc3ncnc(Nc4ccc(OCc5cccc(F)c5)c(Cl)c4)c3c2)o1 [Lapatinib] (partner 2 µM)
In short: (§1)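 The day after seeding in 1536-well plates, lung cancer cell lines were treated by pin tool with a single drug, or with a fixed anchor-drug dose together with five library-drug doses (not always all listed) in √10 steps. After 5 days, a combined fix-and-stain solution (final 0.05% Triton X-100, 1% formaldehyde, 1 ug/ml Hoechst) was added. Nuclei counted on 4× images gave relative viability as treated counts over vehicle counts, reported as the median of duplicate plates.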

Serdemetan + Alpelisib = compound: c1ccc2c(CCNc3ccc(Nc4ccncc4)cc3)c[nH]c2c1 [Serdemetan] + Cc1nc(NC(=O)N2CCC[C@H]2C(N)=O)sc1-c1ccnc(C(C)(C)C(F)(F)F)c1 [Alpelisib] (partner 2 µM)
In short: as §1

Serdemetan + Olaparib = compound: c1ccc2c(CCNc3ccc(Nc4ccncc4)cc3)c[nH]c2c1 [Serdemetan] + O=C(c1cc(Cc2n[nH]c(=O)c3ccccc23)ccc1F)N1CCN(C(=O)C2CC2)CC1 [Olaparib] (partner 8 µM)
In short: as §1

Serdemetan + Tozasertib = compound: c1ccc2c(CCNc3ccc(Nc4ccncc4)cc3)c[nH]c2c1 [Serdemetan] + Cc1cc(Nc2cc(N3CCN(C)CC3)nc(Sc3ccc(NC(=O)C4CC4)cc3)n2)n[nH]1 [Tozasertib] (partner 0.1 µM)
In short: as §1

Row | Cell Line | relative viability (Selisistat + Lapatinib; first compound 0.4 µM) | relative viability (Selisistat + Lapatinib; first compound 1.265 µM) | relative viability (Selisistat + Lapatinib; first compound 4 µM) | relative viability (Selisistat + Lapatinib; first compound 12.65 µM) | relative viability (Selisistat + Lapatinib; first compound 40 µM) | relative viability (Serdemetan + Alpelisib; first compound 0.04 µM) | relative viability (Serdemetan + Alpelisib; first compound 0.1265 µM) | relative viability (Serdemetan + Alpelisib; first compound 0.4 µM) | relative viability (Serdemetan + Alpelisib; first compound 1.265 µM) | relative viability (Serdemetan + Alpelisib; first compound 4 µM) | relative viability (Serdemetan + Olaparib; first compound 0.04 µM) | relative viability (Serdemetan + Olaparib; first compound 0.1265 µM) | relative viability (Serdemetan + Olaparib; first compound 0.4 µM) | relative viability (Serdemetan + Olaparib; first compound 1.265 µM) | relative viability (Serdemetan + Olaparib; first compound 4 µM) | relative viability (Serdemetan + Tozasertib; first compound 0.04 µM) | relative viability (Serdemetan + Tozasertib; first compound 0.1265 µM) | relative viability (Serdemetan + Tozasertib; first compound 0.4 µM) | relative viability (Serdemetan + Tozasertib; first compound 1.265 µM) | relative viability (Serdemetan + Tozasertib; first compound 4 µM)
1 | 201T | 1.11 | 1.02 | 1.02 | 1.03 | 1.08 | 0.965 | 0.995 | 1.01 | 0.939 | 0.883 | 0.821 | 0.8 | 0.822 | 0.543 | 0.492 | 0.983 | 0.939 | 0.925 | 0.787 | 0.497
2 | A549 | 1.05 | 0.937 | 1.12 | 0.974 | 0.95 | 0.753 | 0.722 | 0.727 | 0.569 | 0.252 | 0.208 | 0.382 | 0.269 | 0.141 | 0.147 | – | – | – | – | –
3 | A-427 | 1.03 | 1.02 | 0.98 | 0.879 | 1.12 | 1.05 | 1.05 | 1.1 | 0.833 | 0.561 | 0.693 | 0.639 | 0.711 | 0.66 | 0.643 | 0.2 | 0.198 | 0.192 | 0.165 | 0.16
4 | ABC-1 | 1.03 | 1.12 | 1.19 | 0.924 | 1.24 | 1.16 | 1.14 | 0.965 | 0.812 | 0.486 | 0.627 | 0.689 | 0.982 | 0.702 | 0.573 | 0.132 | 0.171 | 0.182 | 0.177 | 0.162
5 | BEN | 0.677 | 0.683 | 0.471 | 0.603 | 0.548 | 0.929 | 1.02 | 0.987 | 0.99 | 0.824 | 0.975 | 0.98 | 1.15 | 0.81 | 0.594 | 0.451 | 0.477 | 0.531 | 0.478 | 0.469
6 | CAL-12T | 0.628 | 0.704 | – | 0.627 | 0.646 | 1.11 | 1.5 | 1.23 | – | 1.18 | 0.777 | 0.713 | 0.576 | 0.742 | 0.67 | 0.272 | 0.318 | 0.246 | 0.309 | 0.327
7 | COR-L23 | 0.969 | 1.03 | 0.959 | 0.935 | 0.799 | 0.788 | 0.767 | 0.763 | 0.821 | 0.703 | 0.316 | 0.324 | 0.386 | 0.313 | 0.289 | 0.236 | 0.201 | 0.224 | 0.174 | 0.165
8 | COR-L 105 | 0.298 | 0.338 | 0.371 | 0.378 | 0.31 | 0.906 | 1.08 | 0.922 | 1.04 | 0.865 | 0.774 | 0.677 | 0.542 | 0.603 | 0.565 | 0.313 | 0.336 | 0.357 | 0.405 | 0.366
9 | Calu-6 | 1.06 | 1.09 | 1.02 | 0.949 | 0.895 | 0.934 | 1.01 | 0.929 | 0.788 | 0.674 | 0.561 | 0.612 | 0.555 | 0.412 | 0.362 | – | – | – | – | –
10 | ChaGo-K-1 | – | – | – | – | – | – | – | – | – | – | 0.401 | 0.269 | 0.258 | 0.168 | 0.257 | 0.231 | 0.232 | 0.2 | 0.178 | 0.167
11 | EBC-1 | 0.256 | 0.208 | 0.224 | 0.243 | 0.244 | 0.739 | 0.865 | 0.752 | 0.793 | 0.623 | 0.694 | 0.669 | 0.703 | 0.594 | 0.547 | – | – | – | – | –
12 | EKVX | 0.213 | 0.243 | 0.185 | 0.252 | 0.215 | 0.876 | 0.911 | 0.804 | 0.676 | 0.619 | 0.852 | 0.851 | – | – | 0.66 | 0.424 | 0.426 | 0.327 | – | 0.29
13 | EMC-BAC-2 | 0.869 | 0.875 | 0.848 | 0.894 | 0.848 | 0.727 | 0.712 | 0.727 | 0.662 | 0.548 | 0.447 | 0.446 | 0.473 | 0.338 | 0.403 | 0.246 | 0.298 | 0.248 | 0.22 | 0.217
14 | EPLC-272H | 0.761 | 0.996 | – | 0.955 | 0.915 | 0.968 | 0.834 | 0.881 | 0.647 | 0.843 | 0.837 | 0.883 | 0.714 | 0.676 | 0.641 | 0.269 | 0.309 | 0.306 | 0.169 | 0.249
15 | H3255 | 0.225 | 0.263 | 0.123 | 0.245 | 0.271 | 0.657 | 0.693 | 0.585 | 0.683 | 0.525 | 0.559 | 0.529 | 0.527 | 0.508 | 0.566 | 0.678 | 0.693 | 0.629 | 0.626 | 0.556
